US20240150377A1, “MODULATORS OF CYSTIC FIBROSIS TRANSMEMBRANE CONDUCTANCE REGULATOR” (VERTEX PHARMACEUTICALS INCORPORATED, priority 2020, published 2024)

Target: T1, CFTR (Homo sapiens, UniProt P13569, DEL508-508)
T1 construct: endogenous in cells; host or cells: primary human bronchial epithelial cells from CF subjects (F508del/MF-HBE), differentiated at air-liquid interface
Test: HBE assay: Ussing chamber assay of CFTR-mediated short-circuit currents
Format: cell-based
Conditions: HBE assay; for EC50: read-out: HBE EC50; for Emax: read-out: HBE Max activity (%); for activation at 10 µM: read-out: HBE Activity at 10 μM (%)
Method in brief: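 CFTR-mediated Isc (μA/cm²) equals the peak response to apical 20 μM forskolin minus the residual after a 20 μM each BPO/GlyH-101/CFTR inhibitor 172 cocktail, recorded in Ussing chambers at Vhold 0 mV, 37 °C, pH 7.4, with 30 μM apical amiloride. Cells were F508del/MF HBE cultures preincubated 18-24 h with corrector (concentration range or 10 μM) plus 1 μM ivacaftor in 20% human serum.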

T1 sequence (P13569 with tags, fused parts or gaps DEL508-508): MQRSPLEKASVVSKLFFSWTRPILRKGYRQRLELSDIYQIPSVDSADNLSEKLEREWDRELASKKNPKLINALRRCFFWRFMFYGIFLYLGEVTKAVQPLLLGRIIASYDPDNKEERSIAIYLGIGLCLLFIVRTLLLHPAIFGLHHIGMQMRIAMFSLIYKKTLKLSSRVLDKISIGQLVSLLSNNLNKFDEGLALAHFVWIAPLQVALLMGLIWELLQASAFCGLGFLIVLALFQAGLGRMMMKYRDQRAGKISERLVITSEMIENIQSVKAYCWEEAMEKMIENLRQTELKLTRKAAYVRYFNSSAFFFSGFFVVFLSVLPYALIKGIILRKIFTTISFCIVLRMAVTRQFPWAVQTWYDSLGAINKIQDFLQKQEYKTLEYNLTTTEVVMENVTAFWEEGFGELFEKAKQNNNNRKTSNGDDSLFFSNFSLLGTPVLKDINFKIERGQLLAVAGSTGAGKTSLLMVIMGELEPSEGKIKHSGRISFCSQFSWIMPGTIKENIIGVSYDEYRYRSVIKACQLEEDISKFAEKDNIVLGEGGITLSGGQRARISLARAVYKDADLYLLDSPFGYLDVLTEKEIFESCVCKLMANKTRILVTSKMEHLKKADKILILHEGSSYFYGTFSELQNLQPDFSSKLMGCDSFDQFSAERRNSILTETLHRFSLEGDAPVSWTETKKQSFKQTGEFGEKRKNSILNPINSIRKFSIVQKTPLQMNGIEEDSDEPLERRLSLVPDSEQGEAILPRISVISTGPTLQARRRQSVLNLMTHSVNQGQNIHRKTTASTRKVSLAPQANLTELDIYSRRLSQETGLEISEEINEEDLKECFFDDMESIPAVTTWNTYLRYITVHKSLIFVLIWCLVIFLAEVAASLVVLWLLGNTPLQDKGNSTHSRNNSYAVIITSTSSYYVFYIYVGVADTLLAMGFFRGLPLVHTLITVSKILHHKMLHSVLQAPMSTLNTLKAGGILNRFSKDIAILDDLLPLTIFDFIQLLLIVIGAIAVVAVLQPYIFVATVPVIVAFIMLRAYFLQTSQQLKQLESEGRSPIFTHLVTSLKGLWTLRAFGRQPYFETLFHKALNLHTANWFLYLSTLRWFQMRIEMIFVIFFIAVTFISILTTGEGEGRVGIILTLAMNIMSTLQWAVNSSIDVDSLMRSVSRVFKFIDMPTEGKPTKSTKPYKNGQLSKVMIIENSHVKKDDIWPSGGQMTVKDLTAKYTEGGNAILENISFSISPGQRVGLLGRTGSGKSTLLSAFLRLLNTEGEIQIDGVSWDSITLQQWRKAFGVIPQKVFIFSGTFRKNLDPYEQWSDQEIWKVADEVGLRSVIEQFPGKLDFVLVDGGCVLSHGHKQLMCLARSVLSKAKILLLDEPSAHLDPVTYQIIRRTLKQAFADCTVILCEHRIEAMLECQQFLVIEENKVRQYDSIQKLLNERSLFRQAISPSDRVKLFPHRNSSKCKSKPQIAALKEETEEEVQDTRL

## Cc1cccc(C)c1-c1cc2nc(n1)NS(=O)(=O)c1cccc(c1)C(=O)N(Cc1ncc(OCC(F)(F)F)cn1)[C@H](CC(C)(C)C)CO2 [Compound 1431]
  EC50: < 1000 nM
  Emax: > 60%

## CO[C@H]1C[C@@H](Oc2cnc(CN3C(=O)c4cccc(c4)S(=O)(=O)Nc4nc(cc(-c5c(C)cccc5C)n4)OC[C@H]3CC(C)C)nc2)C1 [Compound 1432]
  EC50: < 1000 nM
  Emax: > 60%

## Cc1cccc(C)c1-c1cc2nc(n1)NS(=O)(=O)c1cccc(c1)C(=O)N(Cc1ncc(OC3CCCOC3)cn1)[C@H](CC(C)C)CO2 (some centres unmarked) [Compound 1433]
  activation at 10 µM: > 60%

## Cc1cccc(C)c1-c1cc2nc(n1)NS(=O)(=O)c1cccc(c1)C(=O)N(Cc1ncc(O[C@H](C)C(C)C)cn1)[C@H](CC(C)C)CO2 [Compound 1434]
  EC50: 1000 to 3000 nM
  Emax: > 60%

## COC[C@@H]1COCCN1c1cccc(CN2C(=O)c3cccc(c3)S(=O)(=O)Nc3nc(cc(-c4c(C)cccc4C)n3)OC[C@H]2CC(C)(C)C)n1 [Compound 1435]
  activation at 10 µM: > 60%

## Cc1cc(C2COCCO2)cnc1CN1C(=O)c2cccc(c2)S(=O)(=O)Nc2nc(cc(-c3c(C)cccc3C)n2)OC[C@H]1CC(C)(C)C (some centres unmarked) [Compound 1436]
  activation at 10 µM: > 60%
  EC50: < 1000 nM
  Emax: > 60%

## COCCN(c1cncc(CN2C(=O)c3cccc(c3)S(=O)(=O)Nc3nc(cc(-c4c(C)cccc4C)n3)OC[C@H]2CC(C)(C)C)n1)C1CCCC1 [Compound 1437]
  EC50: < 1000 nM
  Emax: > 60%

## CCO[C@H]1CCN(c2cnc(CN3C(=O)c4cccc(c4)S(=O)(=O)Nc4nc(cc(-c5c(C)cccc5C)n4)OC[C@H]3CC(C)(C)C)nc2)C1 [Compound 1438]
  EC50: < 1000 nM
  Emax: > 60%

## COC[C@H]1CCN(c2cnc(CN3C(=O)c4cccc(c4)S(=O)(=O)Nc4nc(cc(-c5c(C)cccc5C)n4)OC[C@H]3CC(C)(C)C)nc2)C1 [Compound 1439]
  EC50: < 1000 nM
  Emax: > 60%

## Cc1cccc(C)c1-c1cc2nc(n1)NS(=O)(=O)c1cccc(c1)C(=O)N(Cc1ncc(N3CC[C@](C)(F)C3)cn1)[C@H](CC(C)(C)C)CO2 [Compound 1440]
  EC50: < 1000 nM
  Emax: > 60%

## Cc1cccc(C)c1-c1cc2nc(n1)NS(=O)(=O)c1cccc(c1)C(=O)N(Cc1ncc(N3CC[C@@](C)(F)C3)cn1)[C@H](CC(C)(C)C)CO2 [Compound 1441]
  EC50: < 1000 nM
  Emax: > 60%

## Cc1cccc(C)c1-c1cc2nc(n1)NS(=O)(=O)c1cccc(c1)C(=O)N(Cc1ncc(N3CCC(C)(F)CC3)cn1)[C@H](CC(C)(C)C)CO2 [Compound 1442]
  activation at 10 µM: > 60%

## Cc1cccc(C)c1-c1cc2nc(n1)NS(=O)(=O)c1cccc(c1)C(=O)N(Cc1ncc(N3CCC(F)(F)CC3)cn1)[C@H](CC(C)(C)C)CO2 [Compound 1443]
  activation at 10 µM: > 60%

## Cc1cccc(C)c1-c1cc2nc(n1)NS(=O)(=O)c1cccc(c1)C(=O)N(Cc1ncc(N3CC(F)(F)C3)cn1)[C@H](CC(C)(C)C)CO2 [Compound 1444]
  EC50: < 1000 nM
  Emax: > 60%

## Cc1cccc(C)c1-c1cc2nc(n1)NS(=O)(=O)c1cccc(c1)C(=O)N(Cc1cccc(N(CC3CCCO3)C(C)C)n1)[C@H](CC(C)(C)C)CO2 (some centres unmarked) [Compound 1445]
  EC50: 1000 to 3000 nM
  Emax: > 60%

## Cc1cccc(C)c1-c1cc2nc(n1)NS(=O)(=O)c1cccc(c1)C(=O)N(Cc1cccc(N(CC3CCCO3)C(C)C)n1)[C@H](CC(C)(C)C)CO2 (some centres unmarked) [Compound 1446]
  HBE Max activity (%): +++ (+++ is >60+)
  EC50: < 1000 nM

## CC[C@@H](C)Oc1cnc(CN2C(=O)c3cccc(c3)S(=O)(=O)Nc3nc(cc(-c4c(C)cccc4C)n3)OC[C@H]2CC2CC2)nc1 [Compound 1447]
  EC50: < 1000 nM
  Emax: > 60%

## Cc1cccc(C)c1-c1cc2nc(n1)NS(=O)(=O)c1cccc(c1)C(=O)N(Cc1ccnc(N3CCC[C@H]3C)n1)[C@H](CC(C)(C)C)CO2 [Compound 1449]
  EC50: < 1000 nM
  Emax: > 60%

## COC[C@H]1CC[C@@H](C)N1c1cncc(CN2C(=O)c3cccc(c3)S(=O)(=O)Nc3nc(cc(-c4c(C)cccc4C)n3)OC[C@H]2CC(C)(C)C)n1 [Compound 1450]
  EC50: < 1000 nM
  Emax: > 60%

## CO[C@H](C)[C@@H]1CCCN1c1cncc(CN2C(=O)c3cccc(c3)S(=O)(=O)Nc3nc(cc(-c4c(C)cccc4C)n3)OC[C@H]2CC(C)(C)C)n1 [Compound 1451]
  EC50: < 1000 nM
  Emax: > 60%

## CC[C@H](C)Oc1cnc(CN2C(=O)c3cccc(c3)S(=O)(=O)Nc3nc(cc(-c4c(C)cccc4C)n3)OC[C@H]2CC2CC2)nc1 [Compound 1453]
  EC50: 1000 to 3000 nM
  Emax: > 60%

## Cc1cccc(C)c1-c1cc2nc(n1)NS(=O)(=O)c1cccc(c1)C(=O)N(Cc1ncc(OC3CC(C)(C)C3)cn1)[C@H](CC1CC1)CO2 [Compound 1454]
  EC50: < 1000 nM
  Emax: > 60%

## Cc1cccc(C)c1-c1cc2nc(n1)NS(=O)(=O)c1cccc(c1)C(=O)N(Cc1ncc(O[C@@H](C)C(C)C)cn1)[C@H](CC1CC1)CO2 [Compound 1455]
  EC50: < 1000 nM
  Emax: > 60%

## Cc1cccc(C)c1-c1cc2nc(n1)NS(=O)(=O)c1cccc(c1)C(=O)N(Cc1cnc(N(C)CCOC(C)C)o1)[C@H](CC(C)(C)C)CO2 [Compound 1460]
  activation at 10 µM: > 60%

## CCO[C@H]1C[C@@H](Oc2cnc(CN3C(=O)c4cccc(c4)S(=O)(=O)Nc4nc(cc(-c5c(C)cccc5C)n4)OC[C@H]3CC(C)C)nc2)C1 [Compound 1461]
  EC50: < 1000 nM
  Emax: > 60%

## Cc1cccc(C)c1-c1cc2nc(n1)NS(=O)(=O)c1cccc(c1)C(=O)N(Cc1ncc(OC3CCCC3)cn1)[C@H](CC1CC1)CO2 [Compound 1463]
  EC50: < 1000 nM
  Emax: > 60%

## Cc1cccc(C)c1-c1cc2nc(n1)NS(=O)(=O)c1cccc(c1)C(=O)N(Cc1ncc(N3CCC(C)(C)C3)cn1)[C@H](CC1CC1)CO2 [Compound 1464]
  EC50: < 1000 nM
  Emax: > 60%

## Cc1cccc(C)c1-c1cc2nc(n1)NS(=O)(=O)c1cccc(c1)C(=O)N(Cc1ncc(OC(C)C)cn1)C(C(C)C(C)C)CO2 (centres unmarked) [Compound 1466]
  activation at 10 µM: > 60%

## Cc1cccc(C)c1-c1cc2nc(n1)NS(=O)(=O)c1cccc(c1)C(=O)N(Cc1ncc(OC(C)C)cc1F)[C@H](CC1CC1)CO2 [Compound 1467]
  EC50: 1000 to 3000 nM
  Emax: > 60%

## Cc1cccc(C)c1-c1cc2nc(n1)NS(=O)(=O)c1cccc(c1)C(=O)N(Cc1ncc(OC3CCC3)cc1F)[C@H](CC1CC1)CO2 [Compound 1468]
  EC50: < 1000 nM
  Emax: > 60%

## Cc1cccc(C)c1-c1cc2nc(n1)NS(=O)(=O)c1cccc(c1)C(=O)N(Cc1ncc(N3CCC(F)(F)C3)cn1)[C@H](CC1CC1)CO2 [Compound 1469]
  EC50: < 1000 nM
  Emax: > 60%

## CC[C@H](C)[C@@H]1COc2cc(-c3c(C)cccc3C)nc(n2)NS(=O)(=O)c2cccc(c2)C(=O)N1Cc1ncc(OC(C)C)cn1 [Compound 1471]
  EC50: < 1000 nM
  Emax: > 60%

## CC[C@H](C)[C@@H]1COc2cc(-c3c(C)cccc3C)nc(n2)NS(=O)(=O)c2cccc(c2)C(=O)N1Cc1ncc(OC2CCC2)cn1 [Compound 1472]
  activation at 10 µM: > 60%
  EC50: < 1000 nM
  Emax: > 60%

## CC[C@@H](C)[C@@H]1COc2cc(-c3c(C)cccc3C)nc(n2)NS(=O)(=O)c2cccc(c2)C(=O)N1Cc1ncc(OC(C)C)cn1 [Compound 1473]
  EC50: < 1000 nM
  Emax: > 60%

## CC[C@@H](C)[C@@H]1COc2cc(-c3c(C)cccc3C)nc(n2)NS(=O)(=O)c2cccc(c2)C(=O)N1Cc1ncc(OC2CCC2)cn1 [Compound 1474]
  EC50: < 1000 nM
  Emax: > 60%

## Cc1cccc(C)c1-c1cc2nc(n1)NS(=O)(=O)c1cccc(c1)C(=O)N(Cc1ccnc(N3CCC[C@H]3C(C)C)n1)[C@H](CC(C)(C)C)CO2 [Compound 1475]
  EC50: < 1000 nM
  Emax: > 60%

## Cc1cccc(C)c1-c1cc2nc(n1)NS(=O)(=O)c1cccc(c1)C(=O)N(Cc1ncc(N3CCC(C)(C)C3)cn1)[C@H](CC1CCC1)CO2 [Compound 1477]
  EC50: < 1000 nM
  Emax: > 60%

## Cc1cccc(C)c1-c1cc2nc(n1)NS(=O)(=O)c1cccc(c1)C(=O)N(Cc1ncc(OC3CC4(CC4)C3)cn1)[C@H](CC1CC1)CO2 [Compound 1478]
  EC50: < 1000 nM
  Emax: > 60%

## Cc1cccc(C)c1-c1cc2nc(n1)NS(=O)(=O)c1cccc(c1)C(=O)N(Cc1ncc(N3CCC(F)(F)C3)cn1)[C@H](CC1CCC1)CO2 [Compound 1479]
  EC50: < 1000 nM
  Emax: > 60%

## Cc1cccc(C)c1-c1cc2nc(n1)NS(=O)(=O)c1cccc(c1)C(=O)N(Cc1ncc(N3C[C@@H](F)[C@@H](F)C3)cn1)[C@H](CC(C)(C)C)CO2 [Compound 1481]
  EC50: < 1000 nM
  Emax: > 60%

## CCOc1cnc(CN2C(=O)c3cccc(c3)S(=O)(=O)Nc3nc(cc(-c4c(C)cccc4C)n3)OC[C@H]2CC2CC2)nc1 [Compound 1482]
  EC50: < 1000 nM
  Emax: > 60%

## COC(C)(C)CNc1cncc(CN2C(=O)c3cccc(c3)S(=O)(=O)Nc3nc(cc(-c4c(C)cccc4C)n3)OC[C@H]2CC(C)(C)C)n1 [Compound 1483]
  EC50: < 1000 nM
  Emax: > 60%

## COCC1(CNc2cncc(CN3C(=O)c4cccc(c4)S(=O)(=O)Nc4nc(cc(-c5c(C)cccc5C)n4)OC[C@H]3CC(C)(C)C)n2)CC1 [Compound 1484]
  activation at 10 µM: > 60%

## Cc1cccc(C)c1-c1cc2nc(n1)NS(=O)(=O)c1cccc(c1)C(=O)N(Cc1ncc(OC3CCC3)cn1)[C@H](CCC(C)(C)C)CO2 [Compound 1486]
  activation at 10 µM: > 60%

## CCOc1cnc(CN2C(=O)c3cccc(c3)S(=O)(=O)Nc3nc(cc(-c4c(C)cccc4C)n3)OC[C@H]2CC2CCC2)nc1 [Compound 1487]
  EC50: < 1000 nM
  Emax: > 60%

## CCOc1cnc(CN2C(=O)c3cccc(c3)S(=O)(=O)Nc3nc(cc(-c4c(C)cccc4C)n3)OC[C@H]2CCC(C)(C)C)nc1 [Compound 1488]
  EC50: < 1000 nM
  Emax: > 60%
